The source of these data is ChEMBL document CHEMBL1201862, “PubChem BioAssay data set” (2004).

What all share (test): NCI-60 cell line screen, 48 h
Assay [1] has as its system HT-29.
For assay [2], the system named is SF-268.
For assay [3], the system named is MDA-N.
The subject of assay [4] is OVCAR-4.
Assay [5] deals with LOX IMVI.
Assay [6] relates to NCI-H226.
Assay [7] concerns M14.
Assay [8] has as its system CAKI-1.
Assay [9] has as its system SK-MEL-28.
Assay [10] relates to IGROV-1.
The subject of assay [11] is KM12.
Assay [12] has as its system HCC 2998.
Assay [13] deals with UO-31.
The test system of assay [14] is NCI-H522.
Assay [15] has as its system SK-OV-3.
Assay [16] has as its system HCT-116.
In assay [17] the test system is U-251.
Assay [18] relates to OVCAR-8.
The test system of assay [19] is OVCAR-5.
Assay [20] has as its system NCI-H460.

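Following 48 hours of exposure in 96-well plates, responses at five concentrations were used to interpolate endpoints linearly. GI50 marks 50% less growth.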 The source made the active and inactive calls. No stated cut-off is given here; in the data, active = GI50 up to about 1.1 µM and inactive = higher.

In the case of `COC(=O)c1ccc2cc(O)ccc2c1`, the GI50 in [1] is 47.6 µM (inactive); in assay [2] it was 21.5 µM (inactive); in assay [3], 78.9 µM (inactive); in [4], > 100 µM (inactive); in [5] it was 55.6 µM (inactive); in [6] it was 60.1 µM (inactive). Further, the GI50 in assay [7] is 72.1 µM (inactive); in assay [8] it was > 100 µM (inactive); in [9], > 100 µM (inactive); in assay [10], 75.7 µM (inactive); in assay [11], 39.9 µM (inactive); in assay [12], > 100 µM (inactive). For the same molecule, the GI50 is 32.4 µM (inactive) in assay [13]; 58.6 µM (inactive) in assay [14]; > 100 µM (inactive) in [15]; 68.7 µM (inactive) in assay [16]; 87.7 µM (inactive) in [17]; 53.2 µM (inactive) in assay [18]. Besides, the GI50 in assay [19] is > 100 µM (inactive).

With `O=C1CSC2(CC(/C=C/C=C/c3ccccc3)=NN2c2cccc(S(=O)(=O)O)c2)N1c1nc2ccccc2s1` (stereo unspecified), the GI50 in assay [1] is 64.3 µM (inactive); in assay [3] it was 52 µM (inactive); in [4] it was 36.9 µM (inactive); in [5], 20 µM (inactive); in [6], 24.8 µM (inactive); in assay [7] it was 60.4 µM (inactive). The GI50 in assay [8] is 54.5 µM (inactive); in assay [9] it was > 100 µM (inactive); in assay [10], 33.7 µM (inactive); in [11] it was 45.8 µM (inactive); in assay [12], 69.7 µM (inactive); in assay [13], 45.3 µM (inactive). Also, the GI50 in [14] is 4.71 µM (inactive); in [20], 31.3 µM (inactive); in [16], 46.5 µM (inactive); in assay [17] it was 24 µM (inactive); in [18], 42.1 µM (inactive); in assay [19] it was > 100 µM (inactive).

Consider `Cc1ccc2c(c1C)C(=O)C1(Cc3cc4c(cc3C1=O)CCC4)C2` (stereo unspecified), for which the GI50 in assay [1], in assay [2], in assay [3], in assay [4], in assay [6] and in assay [7] was > 100 µM (inactive) throughout. Further, the GI50 in [8], in assay [9], in assay [10], in assay [11], in assay [12] and in assay [13] was > 100 µM (inactive) throughout. In addition, the GI50 in assay [14], in assay [20], in assay [15], in assay [16], in assay [17] and in assay [18] was > 100 µM (inactive) throughout. Moreover, the GI50 in assay [19] is > 100 µM (inactive).

On to `C/C=N\n1c(C)c(C#N)c(C#N)c1N`, for which the GI50 in assay [1], in [2], in assay [3], in assay [4], in assay [5] and in [6] was > 100 µM (inactive) each time. Also, the GI50 in [7], in assay [8], in assay [10], in assay [11], in assay [12] and in assay [13] was > 100 µM (inactive) in each case. Moreover, the GI50 in assay [14], in assay [15], in assay [16], in assay [17], in assay [18] and in assay [19] was > 100 µM (inactive) throughout.

For `O=c1oc2cc(/N=C/c3ccccc3Cl)ccc2c2ccccc12`, the GI50 was > 100 µM (inactive) in [1]; 87.1 µM (inactive) in assay [2]; > 100 µM (inactive) in assay [3]; > 100 µM (inactive) in assay [4]; 87.3 µM (inactive) in assay [5]; > 100 µM (inactive) in [6]. For the same molecule, the GI50 in assay [7], in assay [8], in [9], in assay [10], in [11] and in assay [12] was > 100 µM (inactive) each time. The GI50 in [13] was 40.1 µM (inactive); in [14], > 100 µM (inactive); in assay [20], > 100 µM (inactive); in assay [16], 71.3 µM (inactive); in [17], > 100 µM (inactive); in assay [18], > 100 µM (inactive). Besides, in assay [19], the GI50 was > 100 µM (inactive).

As to `O=c1oc2c/c(=C\c3ccccc3)c(=O)c3cccc1c3-2`, the GI50 in [1] is 55.6 µM (inactive); in assay [2], 24.1 µM (inactive); in assay [3], 20.8 µM (inactive); in assay [5], 19.7 µM (inactive); in [6], 31.7 µM (inactive); in assay [7] it was 22.4 µM (inactive). Besides, the GI50 in [8] is 24.1 µM (inactive); in assay [9], 36.1 µM (inactive); in assay [10], 23 µM (inactive); in [11], 24.9 µM (inactive); in [12] it was > 100 µM (inactive); in assay [13], 30.1 µM (inactive). Further, the GI50 in assay [14] is 22.8 µM (inactive); in assay [20], 74.5 µM (inactive); in [15], > 100 µM (inactive); in [16], 25.7 µM (inactive); in assay [17], 18.6 µM (inactive); in assay [18], 19.8 µM (inactive). For the same molecule, the GI50 in assay [19] is 61.7 µM (inactive).

Consider `Oc1cc(N2CCCC2)ccc1/C=N/N1C(=S)N(c2ccccc2)C(=N\c2ccccc2)/C1=N/c1ccccc1`, for which the GI50 in [1] was > 100 µM (inactive); in assay [2], > 100 µM (inactive); in assay [3], > 100 µM (inactive); in [6], 58.6 µM (inactive); in [7], 34.2 µM (inactive); in assay [8] it was > 100 µM (inactive). Further, the GI50 in [9] was > 100 µM (inactive); in assay [10], > 100 µM (inactive); in assay [11] it was > 100 µM (inactive); in [12], > 100 µM (inactive); in assay [13], > 100 µM (inactive); in assay [14], 23.4 µM (inactive). For the same molecule, the GI50 in assay [20] is > 100 µM (inactive); in assay [15] it was 99.8 µM (inactive); in assay [16] it was 44.6 µM (inactive); in assay [17], 31.2 µM (inactive); in assay [18] it was > 100 µM (inactive); in [19] it was > 100 µM (inactive).

Consider `Cc1cn(CCCCCCOC(=O)NC(CCCNC(N)=O)C(=O)O)c(=O)[nH]c1=O` (stereo unspecified), for which the GI50 in assay [1], in assay [2], in assay [3], in assay [4], in [5] and in assay [6] was > 100 µM (inactive) throughout. Also, the GI50 in assay [7], in assay [8], in assay [9], in [10], in assay [11] and in assay [12] was > 100 µM (inactive) in each case. For the same molecule, the GI50 in [13], in [20], in assay [15], in [16], in assay [17] and in assay [18] was > 100 µM (inactive) throughout. In addition, the GI50 in [19] is > 100 µM (inactive).

Take `O=c1[nH]nc(Cc2ccccc2)n1/N=C\CC/C=N\n1c(Cc2ccccc2)n[nH]c1=O`: the GI50 was 23.4 µM (inactive) in assay [1]; 23.8 µM (inactive) in [2]; 44.7 µM (inactive) in assay [3]; 48.8 µM (inactive) in assay [4]; 15.7 µM (inactive) in assay [5]; 33.9 µM (inactive) in assay [6]. Also, the GI50 in assay [7] is 44.9 µM (inactive); in assay [8], > 100 µM (inactive); in assay [9] it was 30.1 µM (inactive); in [10], 14.3 µM (inactive); in [11] it was > 100 µM (inactive); in assay [12], 53.8 µM (inactive). In addition, the GI50 was > 100 µM (inactive) in assay [13]; 61.1 µM (inactive) in assay [14]; 31.3 µM (inactive) in assay [15]; 18.5 µM (inactive) in assay [16]; 34 µM (inactive) in [17]; 23.1 µM (inactive) in assay [18]. In addition, the GI50 in [19] is > 100 µM (inactive).

`Cc1ccc(/N=N/c2c(O)ccc3cc(S(=O)(=O)O)ccc23)c(C)c1`: the GI50 in assay [1], in assay [2], in assay [3], in [4], in [6] and in assay [7] was > 100 µM (inactive) throughout. The GI50 in assay [8], in assay [9], in [10], in assay [11], in assay [12] and in assay [13] was > 100 µM (inactive) in each case. Further, the GI50 in assay [14], in [20], in [15], in [16], in [17] and in assay [18] was > 100 µM (inactive) in each case. For the same molecule, in assay [19], the GI50 is > 100 µM (inactive).

Take `Cc1cc(-c2nc3cc(F)ccc3s2)ccc1N`: the GI50 was 29 µM (inactive) in assay [1]; 20.3 µM (inactive) in [2]; > 46.1 µM (inactive) in [3]; > 56.9 µM (inactive) in [5]; < 0.051 µM (active) in assay [6]; 39.2 µM (inactive) in [7]. Also, the GI50 is 23.6 µM (inactive) in assay [8]; > 100 µM (inactive) in assay [9]; < 0.01 µM (active) in [10]; 42.8 µM (inactive) in assay [11]; < 0.01 µM (active) in [12]; 4.06 µM (inactive) in [13]. Further, the GI50 is 16.9 µM (inactive) in assay [14]; < 0.017 µM (active) in assay [20]; 88.5 µM (inactive) in assay [15]; 21.1 µM (inactive) in assay [16]; 24.2 µM (inactive) in [17]; 36.3 µM (inactive) in assay [18]. Besides, in assay [19], the GI50 is 0.794 µM (active).
